Patent US4352803A, “Novel naphthyridine derivatives, intermediates thereof, processes for preparation thereof, and use thereof” (Dainippon Pharmaceutical Co., Ltd., priority 1978, dated 1982)
≈ marks a conversion by molar mass, not a printed value. Where two headings read alike, the source gives them in different places.

Columns and labels:
[1] = tested on: Staphylococcus aureus 209P JC-1; assay: In vitro antibacterial activity (MIC), Staphylococcus aureus 209P JC-1; type: cell-based; conditions: Staphylococcus aureus 209P JC-1; read-out: minimum inhibitory concentration (MIC)
Text: (§1) (MIC) (μg/ml) Method; Chemotherapy, 22(6), 1126 (1974)

[2] = tested on: Staphylococcus aureus No. 50774; assay: In vitro antibacterial activity (MIC), Staphylococcus aureus No. 50774; type: cell-based
Text: as §1

[3] = tested on: Streptococcus faecalis P-2473; assay: In vitro antibacterial activity (MIC), Streptococcus faecalis P-2473; type: cell-based; conditions: Enterococcus faecalis
Text: as §1

[4] = tested on: Streptococcus pyogenes 65A; assay: In vitro antibacterial activity (MIC), Streptococcus pyogenes 65A; type: cell-based; conditions: read-out: minimum inhibitory concentration (MIC)
Text: as §1

[5] = tested on: Corynebacterium pyogenes C-21; assay: In vitro antibacterial activity (MIC), Corynebacterium pyogenes C-21; type: cell-based; conditions: Rhodococcus (subgen. Prescottella) equi, C21; Corynebacterium pyogenes C-21; read-out: minimum inhibitory concentration (MIC)
Text: as §1

[6] = tested on: Escherichia coli NIHJ JC-2; assay: In vitro antibacterial activity (MIC), Escherichia coli NIHJ JC-2; type: cell-based; conditions: Escherichia coli, NIHJJC2, read-out: minimum inhibitory concentration (MIC)
Text: as §1

Escherichia coli P-5101 [7] = assay: In vitro antibacterial activity (MIC), Escherichia coli P-5101; type: cell-based
Text: as §1

Escherichia coli P-140a = assay: In vitro antibacterial activity (MIC), Escherichia coli P-140a; type: cell-based; conditions: Escherichia coli, read-out: minimum inhibitory concentration (MIC)
Text: as §1

[8] = tested on: Salmonella typhimurium 8-9; assay: In vitro antibacterial activity (MIC), Salmonella typhimurium 8-9; type: cell-based; conditions: Salmonella enterica, read-out: minimum inhibitory concentration (MIC)
Text: as §1

[9] = tested on: Salmonella enteritidis No. 1891; assay: In vitro antibacterial activity (MIC), Salmonella enteritidis No. 1891; type: cell-based; conditions: Salmonella enterica, read-out: minimum inhibitory concentration (MIC)
Text: as §1

Shigella flexneri 2a = assay: In vitro antibacterial activity (MIC), Shigella flexneri 2a; type: cell-based; conditions: read-out: minimum inhibitory concentration (MIC)
Text: as §1

[10] = tested on: Shigella flexneri 4a P-330; assay: In vitro antibacterial activity (MIC), Shigella flexneri 4a P-330; type: cell-based; conditions: 4AP330, read-out: minimum inhibitory concentration (MIC)
Text: as §1

[11] = tested on: Klebsiella pneumoniae No. 13; assay: In vitro antibacterial activity (MIC), Klebsiella pneumoniae No. 13; type: cell-based; conditions: Klebsiella pneumoniae No. 13; read-out: minimum inhibitory concentration (MIC)
Text: as §1

[12] = tested on: Enterobacter cloacae P-2540; assay: In vitro antibacterial activity (MIC), Enterobacter cloacae P-2540; type: cell-based
Text: as §1

[13] = tested on: Pseudomonas aeruginosa Tsuchijima; assay: In vitro antibacterial activity (MIC), Pseudomonas aeruginosa Tsuchijima; type: cell-based; conditions: Pseudomonas aeruginosa Tsuchijima; read-out: minimum inhibitory concentration (MIC)
Text: as §1

[14] = tested on: Pseudomonas aeruginosa No. 12; assay: In vitro antibacterial activity (MIC), Pseudomonas aeruginosa No. 12; type: cell-based; conditions: Pseudomonas aeruginosa No. 12; read-out: minimum inhibitory concentration (MIC)
Text: as §1

[15] = tested on: Serratia marcescens IFC 3736; assay: In vitro antibacterial activity (MIC), Serratia marcescens IFC 3736; type: cell-based; conditions: IFC3736; Serratia marcescens IFC 3736; read-out: minimum inhibitory concentration (MIC)
Text: as §1

Proteus morganii Kono = assay: In vitro antibacterial activity (MIC), Proteus morganii Kono; type: cell-based; conditions: Morganella morganii, read-out: minimum inhibitory concentration (MIC)
Text: as §1

Proteus mirabilis P-2381 = assay: In vitro antibacterial activity (MIC), Proteus mirabilis P-2381; type: cell-based
Text: as §1

[16] = tested on: Gram-positive bacteria and Gram-negative bacteria; assay: In vitro antibacterial activity against 19 strains of bacteria (overall); type: cell-based; conditions: comparisons are with compounds of the invention
Text: as §1

in vivo = conditions: for LD50 at 168 h: mouse, in vivo, po
Protocol: The number of dead mice was counted after 7 days, and the value of median lethal dose (LD50, mg/kg) was calculated in accordance with the Behrens-Kaerber method.

Escherichia coli P-5101 [17] = assay: in vivo efficacy against systemic infection in mice, Escherichia coli P-5101; conditions: P5101, in Mus musculus, po, 168 h
Protocol: Male mice (ddY) weighing about 20 g
Intraperitoneal infection with (about
9 × 10^6 cells/mouse) of a bacterial
(§2) suspension in trypto-soy broth with 4% mucin.
(§3) Twice, about 5 minutes and 6 hours after infection.

[18] = tested on: Pseudomonas aeruginosa No. 12; assay: in vivo efficacy against systemic infection in mice, Pseudomonas aeruginosa No. 12; conditions: NO.12, in Mus musculus, po, 168 h
Protocol: Male mice (ddY) weighing about 20 g
(3) Pseudomonas aeruginosa No. 12;
(about 5 × 10^3 cells/mouse) of a bacterial
as §2, §3
The numerals in the table show ED50 (mg/kg). ED50 values were

[19] = tested on: Staphylococcus aureus No. 50774; assay: in vivo efficacy against systemic infection in mice, Staphylococcus aureus No. 50774; conditions: NO.50774, in Mus musculus, po, 336 h
Protocol: Male mice (ddY) weighing about 20 g
Intravenous infection with (about
5 × 10^8 cells/mouse) of a bacterial
as §3

[20] = tested on: Gram-positive and Gram-negative bacteria; assay: in vivo therapeutic efficacy against systemic infections in mice (overall); parameters: species or system mice (ddY); conditions: systemic infections with Gram-positive and Gram-negative bacteria
[21] = tested on: Pseudomonas aeruginosa No. 12; assay: in vivo efficacy on the ascending kidney infection in mice; parameters: species or system mice (ddY-S); conditions: 120 h; ascending kidney infection with Pseudomonas aeruginosa No. 12; po; mice
Protocol: Female mice (ddY-S) weighing 22 to 30 g were anesthetized by intravenous injection of sodium pentobarbital at a dose of 50 mg/kg. Through a small suprapubic incision, the urinary bladder was exposed and then infected by injecting 0.1 ml of a 1:10,000 dilution of Pseudomonas aeruginosa No. 12 cultured for 20 hours in trypto-soy broth, using 0.25 ml syringe with 0.25 mm needle. The mice were restrained from drinking water for a period from 1 day before to 1 day after the infection and treated twice a day for 3 days starting on the day of infection. On the 5th day after infection, the kidneys were harvested for the detection of the bacteria, transversely bisected and stamped on King A Agar, which were incubated at 37° C. overnight. No bacterial finding in the kidneys was regarded as protected from the ascending kindey infection. ED50 values were calculated by probit analysis.

[22] = Staphylococcus aureus No. 50774, read-out: minimum inhibitory concentration (MIC)
[23] = P2473, Streptococcus faecalis P-2473, read-out: minimum inhibitory concentration (MIC)
[24] = P5101, Escherichia coli P-5101, read-out: minimum inhibitory concentration (MIC)
[25] = P2381, Proteus mirabilis P-2381, read-out: minimum inhibitory concentration (MIC)
[26] = Enterobacter cloacae, P2540, read-out: minimum inhibitory concentration (MIC)

`CCn1cc(C(=O)O)c(=O)c2cc(F)c(N3CCN(C)CC3)nc21` [Compound B, 1-Ethyl-6-fluoro-1,4-dihydro-7-(4-methyl-1-piperazinyl)-4-oxo-1,8-naphthyridine-3-carboxylic acid] showed an MIC [1] of 1.56 µg/mL (≈ 4.67 µM), an MIC [2, 22] of 1.56 µg/mL (≈ 4.67 µM) and an MIC [3, 23] of 12.5 µg/mL (≈ 37.4 µM). For the same compound, the MIC ([4]; Streptococcus pyogenes 65A) was 6.25 µg/mL (≈ 18.7 µM), the MIC [5] was 1.56 µg/mL (≈ 4.67 µM) and the MIC [6] was 0.39 µg/mL (≈ 1.17 µM). For the same compound, the MIC (Escherichia coli P-5101 [7]; [24]) was 0.2 µg/mL (≈ 0.598 µM), the MIC (Escherichia coli P-140a) was 0.39 µg/mL (≈ 1.17 µM) and the MIC ([8]; Salmonella typhimurium 8-9) was 0.2 µg/mL (≈ 0.598 µM). It also gave an MIC ([9]; ENTERITIDIS) of 0.1 µg/mL (≈ 0.299 µM), an MIC (Shigella flexneri 2a) of 0.39 µg/mL (≈ 1.17 µM) and an MIC [10] of 0.78 µg/mL (≈ 2.33 µM). For the same compound, the MIC [11] was 0.39 µg/mL (≈ 1.17 µM), the MIC ([12]; P2540, Enterobacter cloacae P-2540, read-out: minimum inhibitory concentration (MIC)) was 0.39 µg/mL (≈ 1.17 µM) and the MIC [13] was 1.56 µg/mL (≈ 4.67 µM). For the same compound, the MIC [14] was 3.13 µg/mL (≈ 9.36 µM), the MIC [15] was 1.56 µg/mL (≈ 4.67 µM) and the MIC (Proteus morganii Kono) was 0.78 µg/mL (≈ 2.33 µM). The MIC (Proteus mirabilis P-2381; [25]) was 1.56 µg/mL (≈ 4.67 µM), the “antibacterial activity (in words)” value [16] was “equivalent or higher antibacterial activity” and the “toxicity (in words)” value (in vivo; acute, oral, mice) was “extremely high toxicity”. The LD50 at 168 h (in vivo) was 210 mg/kg, the ED50 (Escherichia coli P-5101 [17]) was 1.2 mg/kg and the ED50 [18] was 10.6 mg/kg. It also gave an ED50 [19] of 4.8 mg/kg.
Compound `CCn1cc(C(=O)O)c(=O)c2cc(Cl)c(N3CCNCC3)cc21` [Compound C, 6-Chloro-1-ethyl-1,4-dihydro-4-oxo-7-(1-piperazinyl)quinoline-3-carboxylic acid] has an MIC [1] of 0.78 µg/mL (≈ 2.32 µM), an MIC ([2]; Staphylococcus aureus, NO.50774, read-out: minimum inhibitory concentration (MIC)) of 1.56 µg/mL (≈ 4.65 µM) and an MIC [3, 23] of 6.25 µg/mL (≈ 18.6 µM). The MIC ([4]; Streptococcus pyogenes, 65A) was 6.25 µg/mL (≈ 18.6 µM), the MIC [5] was 1.56 µg/mL (≈ 4.65 µM) and the MIC [6] was 0.39 µg/mL (≈ 1.16 µM). It also gave an MIC (Escherichia coli P-5101 [7]; Escherichia coli, P5101, read-out: minimum inhibitory concentration (MIC)) of 0.2 µg/mL (≈ 0.596 µM), an MIC (Escherichia coli P-140a) of 0.2 µg/mL (≈ 0.596 µM) and an MIC ([8]; TYPHIMURIUM) of 0.2 µg/mL (≈ 0.596 µM). It also gave an MIC ([9]; ENTERITIDIS) of 0.2 µg/mL (≈ 0.596 µM), an MIC (Shigella flexneri 2a) of 0.39 µg/mL (≈ 1.16 µM) and an MIC [10] of 0.2 µg/mL (≈ 0.596 µM). For the same compound, the MIC [11] was 0.78 µg/mL (≈ 2.32 µM), the MIC [12, 26] was 0.2 µg/mL (≈ 0.596 µM) and the MIC [13] was 3.13 µg/mL (≈ 9.32 µM). It also gave an MIC [14] of 3.13 µg/mL (≈ 9.32 µM), an MIC [15] of 0.78 µg/mL (≈ 2.32 µM) and an MIC (Proteus morganii Kono) of 0.39 µg/mL (≈ 1.16 µM). The MIC (Proteus mirabilis P-2381; Proteus mirabilis, P2381, read-out: minimum inhibitory concentration (MIC)) was 0.39 µg/mL (≈ 1.16 µM), the “antibacterial activity (in words)” value [16] was “clearly inferior” and the “therapeutic effect / in vivo antibacterial activity (in words)” value [20] was “clearly inferior”. It also gave an LD50 at 168 h (in vivo) of over 2000 mg/kg, an ED50 (Escherichia coli P-5101 [17]) of about 15 mg/kg and an ED50 [18] of over 100 mg/kg. The ED50 [19] was about 100 mg/kg.
`CCn1cc(C(=O)O)c(=O)c2cc(F)c(N3CCNCC3)cc21` [Compound D, 1-Ethyl-6-fluoro-1,4-dihydro-4-oxo-7-(1-piperazinyl)quinoline-3-carboxylic acid] gave an MIC [1] of 0.39 µg/mL (≈ 1.22 µM), an MIC [2, 22] of 0.78 µg/mL (≈ 2.44 µM) and an MIC ([3]; P2473, read-out: minimum inhibitory concentration (MIC)) of 3.13 µg/mL (≈ 9.8 µM). The MIC [5] was 0.78 µg/mL (≈ 2.44 µM), the MIC [6] was 0.1 µg/mL (≈ 0.313 µM) and the MIC (Escherichia coli P-5101 [7]; [24]) was 0.05 µg/mL (≈ 0.157 µM). It also gave an MIC (Escherichia coli P-140a) of 0.1 µg/mL (≈ 0.313 µM), an MIC ([8]; Salmonella typhimurium 8-9) of 0.05 µg/mL (≈ 0.157 µM) and an MIC ([9]; Salmonella enteritidis No. 1891) of 0.05 µg/mL (≈ 0.157 µM). The MIC (Shigella flexneri 2a) was 0.1 µg/mL (≈ 0.313 µM), the MIC [10] was 0.2 µg/mL (≈ 0.626 µM) and the MIC [11] was 0.2 µg/mL (≈ 0.626 µM). The MIC [12, 26] was 0.1 µg/mL (≈ 0.313 µM), the MIC [13] was 0.39 µg/mL (≈ 1.22 µM) and the MIC [14] was 0.78 µg/mL (≈ 2.44 µM). The MIC [15] was 0.2 µg/mL (≈ 0.626 µM), the MIC (Proteus morganii Kono) was 0.1 µg/mL (≈ 0.313 µM) and the MIC (Proteus mirabilis P-2381; [25]) was 0.2 µg/mL (≈ 0.626 µM). It also gave an ED50 [21] of 16.1 mg/kg, an ED50 (Escherichia coli P-5101 [17]) of 4.7 mg/kg and an ED50 [18] of 15.5 mg/kg. The ED50 [19] was 21.9 mg/kg.
